Experimental data as given in publication PMC11597817, “Modulation of Multispecific Transporters by Uncaria tomentosa Extract and Its Major Phytoconstituents” (Pharmaceutics, 2024).
Like-named read-outs stand apart in the source and are kept apart here.

What was measured:
[1] = test system: MRPs; conditions: cited from earlier work
[2] = test system: pregnane X receptor (PXR); conditions: cited from earlier work
[3] = test system: HEK293-MDR1; assay: Antiproliferative MTT assay; type: cell-based, human; conditions: 30 μM pure natural product, 72 h
Experimental: For the determination of the antiproliferative properties of the prepared extract and selected alkaloids (isopteropodine, mitraphylline, and uncarine D), an MTT assay was applied on our HEK293 cell panel (see Table S4). […] All were maintained in a minimal essential medium completed with 10% fetal bovine serum, 1% non-essential amino acids, and 1% penicillin–streptomycin at 37 °C in a humidified atmosphere containing 5% CO2. All cell lines were purchased from the European Collection of Cell Cultures (Salisbury, UK), except for SiHa and C33A, which were from the American Tissue Culture Collection, LGC Standards GmbH (Wesel, Germany). Cell culture media and supplements were obtained from Lonza Group Ltd. (Basel, Switzerland). Cells were seeded into 96-well plates (C33A 10,000/well, all others 5000/well); after overnight incubation, the test substances were added and incubated for another 72 h under cell-culturing conditions. Uncaria tomentosa extract and the alkaloids were tested in the 1–90 μg/mL and 1–30 μM ranges, respectively. Finally, 20 μL of 5 mg/mL MTT solution was added to each well and incubated for 4 h; the medium was discarded, and the precipitated formazan crystals were dissolved in DMSO for 60 min with shaking. The absorbance was determined using a microplate reader (SPECTROstar Nano, BMG Labtech GmbH). […]

[4] = biological target: T1, OCT2 (Homo sapiens, UniProt O15244); assay: Uptake inhibition assay, OCT2-overexpressing HEK293 cells; type: cell-based; conditions: oxindole alkaloids; substrate metformin; read-out: IC50 (95% CI of IC50)
T1 construct: expressed in transfected cells; host or cells: HEK293 (lentiviral transduction; cDNA synthesised by GenScript)
T1 sequence (O15244 whole entry): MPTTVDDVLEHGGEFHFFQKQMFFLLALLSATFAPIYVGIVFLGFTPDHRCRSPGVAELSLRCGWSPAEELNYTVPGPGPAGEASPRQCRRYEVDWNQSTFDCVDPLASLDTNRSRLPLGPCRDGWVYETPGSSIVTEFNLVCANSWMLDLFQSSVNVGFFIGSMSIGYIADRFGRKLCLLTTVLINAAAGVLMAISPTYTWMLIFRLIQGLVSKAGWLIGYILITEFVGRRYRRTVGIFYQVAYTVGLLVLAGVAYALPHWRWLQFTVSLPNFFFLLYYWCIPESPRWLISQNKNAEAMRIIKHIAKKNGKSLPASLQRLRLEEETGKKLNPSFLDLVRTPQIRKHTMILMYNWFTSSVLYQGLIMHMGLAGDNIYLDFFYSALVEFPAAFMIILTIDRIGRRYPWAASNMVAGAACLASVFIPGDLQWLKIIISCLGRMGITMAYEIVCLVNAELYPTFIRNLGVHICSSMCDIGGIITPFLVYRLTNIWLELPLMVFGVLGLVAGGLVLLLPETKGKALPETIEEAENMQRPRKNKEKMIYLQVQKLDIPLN
Experimental: (§1) The human embryonic kidney 293 (HEK293) cell line was purchased from Invitrogen/ThermoFisher (Waltham, MA, USA). Madin–Darby canine kidney II (MDCKII) wild type cells were obtained from the European Collection of Authenticated Cell Cultures (ECACC catalog no. 00062107). […]
(§2) Plated cells were preincubated with a transport buffer (HBSS) containing 30 or 150 µg/mL of UT extract or 100 µM of isopteropodine, mitraphylline, or uncarine D for 15 min at an appropriate temperature. […] For radiolabeled substrates, accumulation was measured by liquid scintillation counting (MicroBeta Scintillation Counter, PerkinElmer).
(§3) The transporter-mediated uptake and ATP-dependent transport were determined by subtracting the activity of the control cell/transporter abundant-membrane in the presence of AMP from the activity of the transporter-overexpressing cell/transporter-abundant membrane in the presence of ATP. The relative transporter-specific accumulation was expressed as the percent of DMSO activity. […] Confidence intervals (CIs) of 95% were also determined. […]

[5] = biological target: T2, OATP2B1 (Homo sapiens, UniProt O94956); assay: Uptake inhibition assay, OATP2B1-overexpressing HEK293 cells; type: cell-based; conditions: oxindole alkaloids, substrate E3S, read-out: IC50 (95% CI of IC50)
T2 construct: expressed in transfected cells; host or cells: HEK293 (lentiviral transduction; cDNA synthesised by GenScript)
T2 sequence (O94956 whole entry): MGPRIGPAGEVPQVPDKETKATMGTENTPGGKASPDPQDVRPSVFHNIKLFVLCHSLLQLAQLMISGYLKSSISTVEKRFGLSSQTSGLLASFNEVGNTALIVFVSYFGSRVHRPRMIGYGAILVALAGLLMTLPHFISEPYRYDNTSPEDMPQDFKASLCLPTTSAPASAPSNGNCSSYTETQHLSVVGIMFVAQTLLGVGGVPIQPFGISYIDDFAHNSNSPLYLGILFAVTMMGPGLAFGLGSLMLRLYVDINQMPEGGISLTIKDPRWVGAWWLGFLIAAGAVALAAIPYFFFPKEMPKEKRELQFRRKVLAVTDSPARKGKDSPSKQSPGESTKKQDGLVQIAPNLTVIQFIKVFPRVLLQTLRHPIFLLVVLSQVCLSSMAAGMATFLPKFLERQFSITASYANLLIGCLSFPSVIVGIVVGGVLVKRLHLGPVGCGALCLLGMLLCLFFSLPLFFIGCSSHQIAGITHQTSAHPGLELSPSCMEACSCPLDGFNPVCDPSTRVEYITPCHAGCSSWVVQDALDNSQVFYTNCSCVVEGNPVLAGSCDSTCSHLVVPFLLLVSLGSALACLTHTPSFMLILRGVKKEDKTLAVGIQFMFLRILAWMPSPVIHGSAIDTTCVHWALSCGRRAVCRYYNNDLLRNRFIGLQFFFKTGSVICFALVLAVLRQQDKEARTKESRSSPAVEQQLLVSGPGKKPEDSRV
Experimental: as §1, §2, §3

[6] = biological target: T3, OAT2 (Homo sapiens, UniProt Q9Y694); assay: Uptake inhibition assay, OAT2-overexpressing HEK293 cells; type: cell-based; conditions: at 100 µM
T3 construct: expressed in transfected cells; host or cells: HEK293 (lentiviral transduction; cDNA synthesised by GenScript)
T3 sequence (Q9Y694 1-546 isoform Q9Y694-2): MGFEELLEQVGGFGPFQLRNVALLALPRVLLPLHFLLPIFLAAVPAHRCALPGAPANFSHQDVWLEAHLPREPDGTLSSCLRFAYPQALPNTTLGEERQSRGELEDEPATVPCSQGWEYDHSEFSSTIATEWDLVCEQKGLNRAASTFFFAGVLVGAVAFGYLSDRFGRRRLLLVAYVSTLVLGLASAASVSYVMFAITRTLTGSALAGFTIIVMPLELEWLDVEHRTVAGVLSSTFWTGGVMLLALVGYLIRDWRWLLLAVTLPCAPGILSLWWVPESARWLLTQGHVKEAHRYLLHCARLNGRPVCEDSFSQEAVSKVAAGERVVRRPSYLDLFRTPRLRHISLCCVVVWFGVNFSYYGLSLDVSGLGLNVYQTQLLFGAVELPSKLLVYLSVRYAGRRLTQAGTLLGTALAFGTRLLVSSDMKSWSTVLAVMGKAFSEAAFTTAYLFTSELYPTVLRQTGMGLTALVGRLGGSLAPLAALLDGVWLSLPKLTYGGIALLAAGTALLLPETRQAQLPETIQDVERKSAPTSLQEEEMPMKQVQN
Experimental: as §1, §2, §3

Compound	interaction with MRPs [1]	PXR activation [2]	Cell growth inhibition at the highest concentration (% ± SEM) [3] [%]	IC50 [4] [µM]	IC50 ([5]; listed as Isopteropodine) [µM]	IC50 [5] [µM]	decrease of transporter-mediated transport [6]
COC(=O)C1=CO[C@@H](C)[C@H]2CN3CC[C@]4(C(=O)Nc5ccccc54)[C@@H]3C[C@H]12 [mitraphylline]	not to interact with MRPs	PXR activators	< 20	–	–	–	–
COC(=O)C1=CO[C@@H](C)[C@@H]2CN3CC[C@@]4(C(=O)Nc5ccccc54)[C@@H]3C[C@H]12 [isopteropodine]	–	PXR activators	< 20	16.1	45.4	45.4	around 50%
